From PubChem BioAssay (NCI)
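GI50 is the concentration that inhibits growth by half. TGI denotes the concentration required for complete inhibition of growth.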

Key:
Assay in all cases: NCI anticancer screen, dose series, 384-well format
MALME-3M melanoma = system: MALME-3M melanoma
LOX IMVI melanoma = system: LOX IMVI melanoma
786-0 renal = system: 786-0 renal
NCI/ADR-RES ovarian = system: NCI/ADR-RES ovarian
OVCAR-8 ovarian = system: OVCAR-8 ovarian
SK-MEL-28 melanoma = system: SK-MEL-28 melanoma
MCF7 breast = system: MCF7 breast
SF-295 CNS = system: SF-295 CNS
PC-3 prostate = system: PC-3 prostate
OVCAR-3 ovarian = system: OVCAR-3 ovarian
MDA-MB-231 breast = system: MDA-MB-231 breast
SK-OV-3 ovarian = system: SK-OV-3 ovarian
A549 NSCLC = system: A549 NSCLC
BT-549 breast = system: BT-549 breast
HOP-62 NSCLC = system: HOP-62 NSCLC
NCI-H322M lung = system: NCI-H322M lung
SK-MEL-5 melanoma = system: SK-MEL-5 melanoma
IGROV1 ovarian = system: IGROV1 ovarian
SN12C renal = system: SN12C renal
SF-268 CNS = system: SF-268 CNS
T-47D breast = system: T-47D breast
TK-10 renal = system: TK-10 renal
M14 melanoma = system: M14 melanoma
KM12 colon = system: KM12 colon
OVCAR-5 ovarian = system: OVCAR-5 ovarian
SW-620 colon = system: SW-620 colon
K-562 leukemia = system: K-562 leukemia
A498 renal = system: A498 renal
NCI-H522 lung = system: NCI-H522 lung

SMILES: Cc1c(-c2ccc(N3CCc4cccc(C(=O)Nc5nc6ccccc6s5)c4C3)nc2C(=O)O)cnn1CC12CC3CC(CC(C3)C1)C2
- TGI (MALME-3M melanoma): 23.8 µM
- GI50 (LOX IMVI melanoma): 6.46 µM
- TGI (LOX IMVI melanoma): 18.6 µM
- GI50 ([…]-0 renal): 3.65 µM
- TGI (786-0 renal): 15.5 µM
- GI50 (NCI/ADR-RES ovarian): 13.5 µM
- TGI (NCI/ADR-RES ovarian): 26.4 µM
- GI50 (OVCAR-8 ovarian): 11.8 µM
- TGI (OVCAR-8 ovarian): 24.1 µM
- GI50 (SK-MEL-28 melanoma): 4.35 µM
- TGI (SK-MEL-28 melanoma): 16.3 µM
- GI50 (MCF7 breast): 14.2 µM
- TGI (MCF7 breast): 27.2 µM
- GI50 (SF-295 CNS): 3.63 µM
- TGI (SF-295 CNS): 15.2 µM
- GI50 (PC-3 prostate): 4.89 µM
- TGI (PC-3 prostate): 17.4 µM
- GI50 (OVCAR-3 ovarian): 4.03 µM
- TGI (OVCAR-3 ovarian): 18.1 µM
- GI50 (MDA-MB-231 breast): < 0.01 µM
- TGI (MDA-MB-231 breast): 0.186 µM
- GI50 (SK-OV-3 ovarian): 6.03 µM
- TGI (SK-OV-3 ovarian): 18.7 µM
- GI50 (A549 NSCLC): 8.57 µM
- TGI (A549 NSCLC): 21 µM
- GI50 (BT-549 breast): 9.65 µM
- TGI (BT-549 breast): 21.4 µM
- GI50 (HOP-62 NSCLC): 15.3 µM
- TGI (HOP-62 NSCLC): 28.7 µM
- GI50 (NCI-H322M lung): 7.97 µM
- TGI (NCI-H322M lung): 21 µM
- GI50 (SK-MEL-5 melanoma): 12.8 µM
- TGI (SK-MEL-5 melanoma): 25.4 µM
- GI50 (IGROV1 ovarian): 1.67 µM
- TGI (IGROV1 ovarian): 4 µM
- GI50 (SN12C renal): 13.5 µM
- TGI (SN12C renal): 26.4 µM
- GI50 (SF-268 CNS): 15.2 µM
- TGI (SF-268 CNS): 28.5 µM
- GI50 (T-47D breast): 10.6 µM
- TGI (T-47D breast): 22.4 µM
- GI50 (TK-10 renal): 2.48 µM
- TGI (TK-10 renal): 16 µM
- GI50 (M14 melanoma): 16 µM
- TGI (M14 melanoma): 29.5 µM
- GI50 (KM12 colon): 11.2 µM
- TGI (KM12 colon): 23.2 µM
- GI50 (OVCAR-5 ovarian): 0.351 µM
- TGI (OVCAR-5 ovarian): 12.5 µM
- GI50 (SW-620 colon): 12.4 µM
- TGI (SW-620 colon): 24.8 µM
- GI50 (K-562 leukemia): 10.8 µM
- TGI (K-562 leukemia): 22.8 µM
- GI50 (A498 renal): 0.0911 µM
- TGI (A498 renal): 2.39 µM
- GI50 (NCI-H522 lung): 3.66 µM
- TGI (NCI-H522 lung): 17.6 µM
